Measurements from PMC7044277 (Nature Communications, 2020).
pEC50, pKi: −log10 of the molar value. “And” between values parts separate entries of the source, which are not always exact repeats. Identical values can stand only once.

Legend:
[1] = molecular target: DRD3 wild-type (Homo sapiens, UniProt P35462); assay: Radioligand competition binding, [3H]-N-methylspiperone; details: DRD3; [3H]-methylspiperone (0.8-1.0 nM); read-out: Ki
[2] = molecular target: DRD2 (D2 long receptor) (Homo sapiens, UniProt P14416); assay: Gαi/o-mediated cAMP inhibition (GloSensor split-luciferase cAMP reporter), HEK293T; format: cell-based; details: DRD2;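 note: compounds applied 15 min at room temperature, then luciferin plus 400 nM isoproterenol to raise cAMP through endogenous β2-adrenergic receptors, luminescence read 15 min later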
Chain of DRD2 (D2 long receptor) (P14416 whole entry): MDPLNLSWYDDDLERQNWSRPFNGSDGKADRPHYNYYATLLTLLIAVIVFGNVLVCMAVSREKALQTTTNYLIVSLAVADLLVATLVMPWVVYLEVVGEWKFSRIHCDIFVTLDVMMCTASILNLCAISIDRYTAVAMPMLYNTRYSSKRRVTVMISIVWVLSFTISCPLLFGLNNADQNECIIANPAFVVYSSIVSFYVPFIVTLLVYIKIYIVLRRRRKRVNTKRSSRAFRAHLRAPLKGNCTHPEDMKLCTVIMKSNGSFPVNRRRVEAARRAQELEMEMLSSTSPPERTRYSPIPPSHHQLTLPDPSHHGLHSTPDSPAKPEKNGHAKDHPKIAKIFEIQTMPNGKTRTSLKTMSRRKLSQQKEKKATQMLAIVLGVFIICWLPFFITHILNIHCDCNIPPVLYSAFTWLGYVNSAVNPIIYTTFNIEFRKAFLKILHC

[3] = molecular target: T1, DRD4 (D4.4 variant) (Homo sapiens, UniProt P21917); assay: Gαi/o-mediated cAMP inhibition (GloSensor); format: cell-based; details: DRD4; agonist, cAMP inhibition; read-out: EC50 ± SEM
T1 sequence (P21917 1-419): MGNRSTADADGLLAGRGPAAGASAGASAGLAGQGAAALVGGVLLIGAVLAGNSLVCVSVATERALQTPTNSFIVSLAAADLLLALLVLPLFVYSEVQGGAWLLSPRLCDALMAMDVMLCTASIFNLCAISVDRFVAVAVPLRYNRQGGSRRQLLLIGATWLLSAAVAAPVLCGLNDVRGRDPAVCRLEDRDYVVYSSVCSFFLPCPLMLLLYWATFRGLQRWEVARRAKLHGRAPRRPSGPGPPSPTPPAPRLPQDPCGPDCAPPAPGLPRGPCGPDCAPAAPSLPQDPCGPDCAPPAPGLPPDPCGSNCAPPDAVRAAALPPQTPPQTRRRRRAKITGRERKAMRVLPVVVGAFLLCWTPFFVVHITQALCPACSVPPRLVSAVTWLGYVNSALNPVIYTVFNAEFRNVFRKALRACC

[4] = molecular target: DRD3 (Homo sapiens, UniProt P35462); assay: β-arrestin2 recruitment (Tango); format: cell-based; details: for response, concentration-response data point (replicates): Fig_S10b, drug alone
Chain of DRD3 (P35462 whole entry): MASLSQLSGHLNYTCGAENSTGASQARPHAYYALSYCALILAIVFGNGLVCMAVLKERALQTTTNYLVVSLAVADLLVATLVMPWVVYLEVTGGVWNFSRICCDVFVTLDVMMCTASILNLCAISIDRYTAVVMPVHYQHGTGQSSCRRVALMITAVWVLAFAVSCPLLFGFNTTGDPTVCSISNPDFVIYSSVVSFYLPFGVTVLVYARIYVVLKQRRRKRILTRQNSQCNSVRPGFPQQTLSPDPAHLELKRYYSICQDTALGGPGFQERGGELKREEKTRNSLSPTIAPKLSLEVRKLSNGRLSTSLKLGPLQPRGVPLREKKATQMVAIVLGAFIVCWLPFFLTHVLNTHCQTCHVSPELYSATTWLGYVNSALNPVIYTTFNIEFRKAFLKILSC

[5] = molecular target: DRD5 (Homo sapiens, UniProt P21918); assay: β-arrestin2 recruitment (Tango); format: cell-based; details: Fig_S10e, single replicates
Chain of DRD5 (P21918 whole entry): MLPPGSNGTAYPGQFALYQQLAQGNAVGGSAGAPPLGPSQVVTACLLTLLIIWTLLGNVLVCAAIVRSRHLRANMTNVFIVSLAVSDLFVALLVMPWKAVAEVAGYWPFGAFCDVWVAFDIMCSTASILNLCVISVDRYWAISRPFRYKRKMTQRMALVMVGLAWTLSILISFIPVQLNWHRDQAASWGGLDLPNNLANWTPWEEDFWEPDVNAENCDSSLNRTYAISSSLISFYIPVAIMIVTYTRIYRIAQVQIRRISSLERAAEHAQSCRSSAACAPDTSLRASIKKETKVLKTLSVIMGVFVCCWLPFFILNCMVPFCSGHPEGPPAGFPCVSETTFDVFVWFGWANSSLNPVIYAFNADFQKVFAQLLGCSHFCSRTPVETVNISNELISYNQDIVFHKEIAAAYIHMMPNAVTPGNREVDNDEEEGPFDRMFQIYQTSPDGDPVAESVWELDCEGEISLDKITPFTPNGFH

[6] = molecular target: T2, 5HT2C (Homo sapiens, UniProt P28335); assay: β-arrestin2 recruitment (Tango); format: cell-based; details: Fig_S10m; for β-arrestin2 recruitment response in presence of serotonin (replicate values): +10μM serotonin; for β-arrestin2 recruitment response (dose-response source data, replicate values): drug alone
T2 sequence (P28335 33-458): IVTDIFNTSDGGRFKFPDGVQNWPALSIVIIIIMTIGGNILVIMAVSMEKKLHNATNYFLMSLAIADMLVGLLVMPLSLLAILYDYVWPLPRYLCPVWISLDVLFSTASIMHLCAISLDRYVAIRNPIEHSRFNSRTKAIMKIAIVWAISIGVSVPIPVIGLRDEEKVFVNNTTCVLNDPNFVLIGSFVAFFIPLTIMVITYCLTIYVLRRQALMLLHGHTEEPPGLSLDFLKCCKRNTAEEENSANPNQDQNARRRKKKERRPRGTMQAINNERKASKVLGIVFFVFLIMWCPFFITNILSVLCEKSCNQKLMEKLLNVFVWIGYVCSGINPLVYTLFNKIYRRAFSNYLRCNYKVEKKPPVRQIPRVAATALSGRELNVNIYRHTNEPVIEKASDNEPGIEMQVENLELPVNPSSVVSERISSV

Chain of DRD3 wild-type (P35462 whole entry): as the sequence (P35462 whole entry) above

**Q.** With CCOc1cccc2cc([C@H](C)NCC3(O)CCCCC3)oc12 [O4SE6] as the compound, how does the pKi [1] read?
**A.** Its pKi is 6.09.

**Q.** What about the pEC50 ([2]; agonist, Gαi/o-mediated cAMP inhibition, read-out: EC50 ± SEM) of the same compound?
**A.** Its pEC50 is 7.73.

**Q.** And the “G protein agonist activity” value ([2]; cAMP inhibition)?
**A.** The value was “selective DRD2 agonist”.

**Q.** And the Emax ([2]; HEK-293T, read-out: Emax relative to quinpirole response, cAMP inhibition)?
**A.** The Emax was 91.9%.

**Q.** And the pEC50 [3]?
**A.** The pEC50 was under 5.00.

**Q.** What about the “β-arrestin2 recruitment agonist activity” value ([4]; DRD3, Tango) of the same compound?
**A.** Its value is “no detectable agonist activity”.

**Q.** What about the pEC50 ([4]; DRD3, Tango, read-out: EC50 ± SEM) of the same compound?
**A.** The pEC50 was under 5.00.

**Q.** What about the “response, concentration-response data point (replicates)” value (from here on “response … (replicates)”) ([4]; Log[Drug] -11) of the same compound?
**A.** The value was 0.5878 and 2.511 and 1.194 and 2.15 and 1.1907 and 4.631 and -3.875 and 11.6724 and 8.605.

**Q.** And the “response … (replicates)” value ([4]; Log[Drug] -11.52)?
**A.** Its value is -0.276 and 0.7993 and -0.05881 and 1.198 and 0.07895 and 5.103 and 9.785 and 5.488 and 1.269.

**Q.** And the “response … (replicates)” value ([4]; Log[Drug] -12)?
**A.** The value was 1.3136 and 1.529 and -0.0652 and 0.03793 and 0.02727 and 3.808 and -3.9762 and 0.1686 and 1.294.

**Q.** And the “β-arrestin2 recruitment response at DRD3 (source data, replicate values)” value (from here on “β-arrestin2 recruitment response at DRD3”) ([4]; Log[Drug] -6)?
**A.** The value was 12.3452.

**Q.** What about the “β-arrestin2 recruitment response at DRD3” value ([4]; Log[Drug] -6.52) of the same compound?
**A.** The value was 8.082 and 5.965 and 11.0149 and 19.9759 and 10.9551 and 9.221 and 9.014 and 7.197 and 16.9834.

**Q.** What about the “β-arrestin2 recruitment response at DRD3” value ([4]; Log[Drug] -7) of the same compound?
**A.** Its value is 8.647 and 6.889 and 5.419 and 8.207 and 5.755 and 6.315 and 4.579 and 5.095 and 7.56.

**Q.** And the “β-arrestin2 recruitment response at DRD3” value ([4]; Log[Drug] -7.52)?
**A.** Its value is 4.34 and 0.6022 and 1.762 and 2.508 and 1.167 and 1.071 and 1.816 and 2.855 and 3.052.

**Q.** And the “β-arrestin2 recruitment response at DRD3” value ([4]; Log[Drug] -8)?
**A.** Its value is 0.7316 and 0.3304 and 1.058 and 0.6729 and 0.7789 and 1.51 and 1.953 and 1.946 and 0.2868.

**Q.** What about the “β-arrestin2 recruitment response at DRD3” value ([4]; Log[Drug] -8.52) of the same compound?
**A.** The value was 1.063 and 0.9542 and 0.434 and 0.6781 and 0.1637 and 0.2619 and 0.09244 and 0.8182 and 0.08985.

**Q.** What about the “β-arrestin2 recruitment response at DRD3” value ([4]; Log[Drug] -9) of the same compound?
**A.** The value was -0.1872 and 1.166 and 0.6488 and 0.05773 and 0.4739 and 2.133 and -0.01123 and 0.2998 and -0.1097.

**Q.** What about the “β-arrestin2 recruitment response at DRD3” value ([4]; Log[Drug] -9.52) of the same compound?
**A.** Its value is 0.6514 and 0.02761 and -0.07333 and 1.513 and -0.1516 and 0.7866 and 1.233 and 1.648 and 0.09503.

**Q.** What about the “β-arrestin2 recruitment response at DRD3” value ([4]; Log[Drug] -10) of the same compound?
**A.** The value was 1.257 and -0.3865 and -0.07075 and 0.2387 and 0.7918 and -0.1413 and 0.6108 and 0.3983 and -0.4207.

**Q.** And the “β-arrestin2 recruitment response at DRD3” value ([4]; Log[Drug] -10.52)?
**A.** Its value is 3.755 and 0.333 and -0.07333 and 2.441 and 0.1379 and -0.03791 and 0.1961 and 1.7564 and 0.1754.

**Q.** What about the “β-arrestin2 recruitment response at DRD3” value ([4]; Log[Drug] -11) of the same compound?
**A.** Its value is 0.522 and -0.07333 and -0.1743 and 0.2309 and 5.954 and 1.288 and -0.4182 and -0.01901 and 1.549.

**Q.** And the “β-arrestin2 recruitment response at DRD3” value ([4]; Log[Drug] -11.52)?
**A.** The value was 1.588 and -0.07592 and 0.1337 and 0.3757 and 0.0448 and -0.03791 and 0.4061 and 1.448 and -0.2186.

**Q.** What about the “β-arrestin2 recruitment response, agonist mode (normalized)” value ([5]; Log[Drug] -6.52) of the same compound?
**A.** The value was -0.08982.

**Q.** And the “β-arrestin2 recruitment response, agonist mode (normalized)” value ([5]; Log[Drug] -7)?
**A.** Its value is -2.193 and 0.1162 and 2.002 and 1.631 and 1.978 and 0.5459 and 0.4001 and 1.786 and 0.382.

**Q.** What about the “β-arrestin2 recruitment response, agonist mode (normalized)” value ([5]; Log[Drug] -7.52) of the same compound?
**A.** Its value is -0.08982 and 3.931 and 2.6523 and 1.599 and 1.463 and 1.719 and -0.1199 and 3.905 and 0.3346.

**Q.** And the “β-arrestin2 recruitment response, agonist mode (normalized)” value ([5]; Log[Drug] -8)?
**A.** The value was -0.07925 and -1.147 and -0.7291 and 1.435 and 1.941 and 1.528 and 1.952 and 2.3308 and 0.6078.

**Q.** What about the “β-arrestin2 recruitment response, agonist mode (normalized)” value ([5]; Log[Drug] -8.52) of the same compound?
**A.** Its value is -0.1004 (2×) and 1.601 and 1.441 and 1.882 and 1.748 and 1.175 and 1.334 and 1.6784.

**Q.** What about the “β-arrestin2 recruitment response, agonist mode (normalized)” value ([5]; Log[Drug] -9) of the same compound?
**A.** Its value is 3.899 and 5.394 and 1.786 and 1.099 and 0.04193 and 2.45 and 0.1533 and 0.5646 and 0.6189.

**Q.** What about the “β-arrestin2 recruitment response, agonist mode (normalized)” value ([5]; Log[Drug] -9.52) of the same compound?
**A.** Its value is 2.219 and 0.0951 and 1.997 and 0.5791 and 1.124 and 2.067 and 5.639 and 0.941 and -0.06273.

**Q.** And the “β-arrestin2 recruitment response, agonist mode (normalized)” value ([5]; Log[Drug] -10)?
**A.** The value was -0.7133 and 0.5389 and 5.595 and 1.6 and 2.167 and 2.288 and 0.7068 and 0.5423 and 3.676.

**Q.** What about the “β-arrestin2 recruitment response, agonist mode (normalized)” value ([5]; Log[Drug] -10.52) of the same compound?
**A.** The value was 0.1321 and 0.1268 and 0.9299 and 1.442 and 0.235 and 1.403 and 0.9967 and 3.2411 and 1.093.

**Q.** What about the “β-arrestin2 recruitment response, agonist mode (normalized)” value ([5]; Log[Drug] -11) of the same compound?
**A.** Its value is 0.1268 and 0.1004 and 7.307 and 0.5831 and 0.6598 and 1.285 and 1.949 and 0.03067 and 2.569.

**Q.** And the “β-arrestin2 recruitment response, agonist mode (normalized)” value ([5]; Log[Drug] -11.52)?
**A.** Its value is 3.508 and 1.358 and 1.781 and 0.8196 and 0.1076 and 1.003 and 0.8127 and 3.51 and 1.499.

**Q.** What about the “β-arrestin2 recruitment response, agonist mode (normalized)” value ([5]; Log[Drug] -12) of the same compound?
**A.** Its value is -0.3064 and 5.8435 and 1.717 and 0.4312 and 3.455 and 0.3038 and 0.3541 and 3.032 and 0.3527.

**Q.** And the “β-arrestin2 recruitment response in presence of serotonin (replicate values)” value ([6]; Log[Drug] -5)?
**A.** The value was 45.7461 and 51.1482 and 53.4841 and 61.6893 and 54.4017 and 57.753 and 67.2866 and 83.7427 and 85.1445.

**Q.** And the “β-arrestin2 recruitment response (dose-response source data, replicate values)” value ([6]; Log[Drug] -5)?
**A.** The value was -3.262 and -0.5555 and 0.5642 and 1.204 and -0.4664 and 1.061 and -2.805 and 1.039 and 3.566.

**Q.** And the “β-arrestin2 recruitment response in presence of serotonin (replicate values)” value ([6]; Log[Drug] -5.52)?
**A.** Its value is 76.8132 and 54.1781 and 71.9421 and 67.2323 and 56.1903 and 49.3738 and 64.9568 and 69.9468 and 71.0617.

**Q.** What about the “β-arrestin2 recruitment response (dose-response source data, replicate values)” value ([6]; Log[Drug] -5.52) of the same compound?
**A.** The value was -3.477 and -1.313 and -1.505 and -0.3021 and 0.7731 and -0.1754 and 1.049 and -1.9165 and -0.666.

**Q.** And the “β-arrestin2 recruitment response in presence of serotonin (replicate values)” value ([6]; Log[Drug] -6)?
**A.** Its value is 57.6708 and 60.6404 and 63.9932 and 75.4508 and 75.7722 and 57.215 and 86.3739 and 65.9717 and 77.801.
